Measured values reported in patent publication US20150141375A1 (priority 2009, published 2015).
Values joined by “and” are separate entries in the source; they are usually repeats but may differ in a detail not shown here. Identical values can stand only once. “Also recorded” adds a separate entry of the source.

How the values were obtained:
adenovirus [1] = test: First fifteen EIND patients: adenovirus; settings: individual patients
[2] = type: in vivo, human; settings: individual patients
Adenovirus [3] = test: In vitro activity against Adenovirus (HFF; AdV 5); type: cell-based
[4] = Safety of CMX001 in HSCT and renal transplant recipients with BK virus viruria (blinded); type: in vivo, human; parameters: Mean ALT: unit not given here
Text: Safety and tolerability of CMX001 in HSCT and renal transplant recipients with BK virus viruria is studied. The safety and tolerability of CMX001 in a post-transplant population is investigated and levels of BKV DNA in urine and plasma over time is monitored.
Twelve HSCT and twelve renal transplant recipients randomized 2:1 (CMX001:Placebo)
BKV viruria >10^4, renal transplant recipients allowed with viremia <10^4
Concomitant valganciclovir/ganciclovir excluded for HSCT recipients only Dosing Schedule: […]

HHV-6 = test: In vitro potency against dsDNA viruses: HHV-6; type: cell-based
HCMV (AD169) = test: HCMV real time array of viral transcripts; type: cell-based; settings: CDV 50 μM, GCV 15 μM, CMX001 0.5 μM; ANOVA P<0.05
BKV = test: EIND patients previously treated with other antivirals: BKV; type: in vivo, human
Method: A further study has been conducted on patients with various viral infections and diseases associated with virus.
As shown in Table 5(b), all patients that have been previously treated with other antiviral agents for example cidofovir. […] After these patients are treated with CMX001, the patients show significant improvements.

PK comparison, mouse = type: in vivo; settings: in vivo, 2 mg/kg, calculated from doses of 2 and 10 mg/kg, analyte = label
Text: Table 4 illustrates the PK comparison of CMX001 with CMX021 and CMX064 for mouse, rabbit and human.

CMV = test: First fifteen EIND patients: CMV; type: in vivo, human; settings: six CMV patients, three evaluable
Text: Three were evaluable for viral load reductions and 3/3 responded. Two of the patients who could not be evaluated for reductions in CMV had undetectable levels throughout CMX001 therapy. One patient received only one dose of CMX001 with no virologic follow up.

BK Virus = test: BK virus replication in RPTECs, viral DNA by qPCR after 5 days; type: cell-based; settings: Betapolyomavirus hominis, RPTEC
Method: To test the ability of CMX001 to inhibit replication of BK virus, stocks of BK virus were prepared in HFF cells and dilutions of the virus stocks were used to infect primary human renal tubular epithelial cells (RPTECs). Drug dilutions were then added to the wells containing the infected cells and the plates were incubated for 5 days. Total DNA was prepared from the plates and viral DNA was quantified by qPCR.

[5] = Single-dose, dose-escalation study in healthy adult volunteers; type: in vivo, human
Method: A randomized double-blind, placebo-controlled, single-dose, dose-escalation study of CMX001 in healthy adult volunteers was conducted.
Nine single dose cohorts-CMX001:placebo (2:1)
Six subjects per cohort; 36 received CMX001; 18 received placebo
Highest dose was 2 mg/kg (140 mg in a 70 kg person)
Six multiple dose cohorts-CMX001:placebo (2:1) (3 doses over 3 weeks)
Five subjects per cohort; 20 received CMX001; 10 received placebo

[6] = Clearance and organ distribution in mouse; type: in vivo; settings: oral 5 mg/kg [C2-14C]CMX001, four hours
HPV 11 = test: In vitro potency against dsDNA viruses: HPV 11; type: cell-based
[7] = renal transplant subjects, Day 0
[8] = renal transplant subjects, Day 7
[9] = renal transplant subjects, Day 14
[10] = renal transplant subjects, Day 21
[11] = renal transplant subjects, Day 28
[12] = stem cell transplant subjects, Day 0
[13] = stem cell transplant subjects, Day 7
[14] = stem cell transplant subjects, Day 14
[15] = stem cell transplant subjects, Day 21
[16] = stem cell transplant subjects, Day 28
[17] = human, oral, CMX001 2 mg/kg single dose, plasma, Mean

CCCCCCCCCCCCCCCCOCCCOP(=O)(O)CO[C@H](CO)Cn1ccc(N)nc1=O [CMX001, Hexadecyloxypropyl-cidofovir]
AdV viremia after 1st week (adenovirus [1]): 3.2 Log 10 copies/mL and 5.4 Log 10 copies/mL and 5.0 Log 10 copies/mL and 2.3 Log 10 copies/mL and 7.4 Log 10 copies/mL and 3.4 Log 10 copies/mL and 5.2 Log 10 copies/mL and 2.0 Log 10 copies/mL
AdV viremia after 1st week, change from pre-RX (adenovirus [1]): 4.0 Log 10 copies/mL and 1.0 Log 10 copies/mL and 0.5 Log 10 copies/mL and 1.9 Log 10 copies/mL and 0.7 Log 10 copies/mL and 2.0 Log 10 copies/mL and 1.3 Log 10 copies/mL and 2.5 Log 10 copies/mL
AdV viremia after 2nd week (adenovirus [1]): 2.2 Log 10 copies/mL (2×) and 6.2 Log 10 copies/mL (2×) and 4.1 Log 10 copies/mL and 7.0 Log 10 copies/mL and 3.3 Log 10 copies/mL and 0 Log 10 copies/mL
AdV viremia after 2nd week, change from pre-RX (adenovirus [1]): 5.0 Log 10 copies/mL and 0.2 Log 10 copies/mL and 1.3 Log 10 copies/mL and 2.0 Log 10 copies/mL and 1.1 Log 10 copies/mL and 2.1 Log 10 copies/mL and 0.3 Log 10 copies/mL and 4.5 Log 10 copies/mL
Outcome (adenovirus [1]): Survived; also recorded: Death
WBC (3) ([2]; value on day one of CMX001 treatment): 3.6 (3) and 5.2 (3) and 2.17 (3)
WBC (4) ([2]; value on last day of CMX001 treatment): 5.4 (4) and 4.3 (4)
Enhanced Activity (Adenovirus [3]; CMX001 versus cidofovir EC50): 65
IC50 (Adenovirus [3]; unidentified adenovirus): 20 nM
EC50 (Adenovirus [3]; unidentified adenovirus, HFF): 20 nM
Mean Serum creatinine ([4]; renal transplant subjects, 40 mg/wk×5, Day 0): 1.3 mg/dL
Mean ALT [4, 7]: 19.3
Mean absolute Neutrophil count [4, 7]: 3.16 1000 per cu mm
Mean ALT [4, 8]: 22.4
Mean Serum creatinine [4, 8]: 1.3 mg/dL
Mean absolute Neutrophil count [4, 8]: 4.88 1000 per cu mm
Mean ALT [4, 9]: 21.4
Mean Serum creatinine [4, 9]: 1.3 mg/dL
Mean absolute Neutrophil count [4, 9]: 4.59 1000 per cu mm
Mean ALT [4, 10]: 19.6
Mean Serum creatinine [4, 10]: 1.4 mg/dL
Mean absolute Neutrophil count [4, 10]: 3.46 1000 per cu mm
Mean ALT [4, 11]: 18.2
Mean Serum creatinine [4, 11]: 1.4 mg/dL
Mean absolute Neutrophil count [4, 11]: 4.42 1000 per cu mm
Mean Serum creatinine ([4]; stem cell transplant subjects, 40 mg/wk×5, Day 0): 0.93 mg/dL
Mean ALT [4, 12]: 32.7
Mean absolute Neutrophil count [4, 12]: 4.40 1000 per cu mm
Mean ALT [4, 13]: 17
Mean Serum creatinine [4, 13]: 1.0 mg/dL
Mean absolute Neutrophil count [4, 13]: 4.40 1000 per cu mm
Mean ALT [4, 14]: 17.5
Mean Serum creatinine [4, 14]: 0.9 mg/dL
Mean absolute Neutrophil count [4, 14]: 3.55 1000 per cu mm
Mean ALT [4, 15]: 21.0
Mean Serum creatinine [4, 15]: 0.9 mg/dL
Mean absolute Neutrophil count [4, 15]: 3.50 1000 per cu mm
Mean ALT [4, 16]: 20.0
Mean Serum creatinine [4, 16]: 1.2 mg/dL
Mean absolute Neutrophil count [4, 16]: 3.15 1000 per cu mm
Enhanced Activity (HHV-6; CMX001 versus cidofovir EC50): 50
EC50 (HHV-6; HSB2, HSB-2): 4 nM
levels of viral transcripts (HCMV (AD169)): Significant reductions in levels of most viral transcripts
hemorrhagic cystitis (BKV; EIND 107275): improved while on CMX001
BK viruria (BKV; EIND 107640, declined from 120 million): 48 million copies/mL
BK viremia (BKV; EIND 107640, decreased from 1900): 1900 to 28 copies/mL; BK
Hemorragic cystitis (BKV; EIND 108897): Hemorragic cystitis resolved
BKV in urine (BKV; EIND 108897, at last dose (baseline 7.7 log10), 4 mg/kg twice weekly 2 weeks): log10 at baseline to 5.1 log10 at last
decrease of BKV in urine (BKV; EIND 109232, first two weeks, 2 mg/kg twice weekly): BKV in urine decreased 2.2 log10
AUC (PK comparison, mouse; after CMX001): 83.1 ng·h/mL
Cmax (PK comparison, mouse; after CMX001, read-out: Cmax): 7.9 ng/mL
evaluable patients responding (viral load reductions) (CMV): 3/3
EC50 (BK Virus; Virus Dilution 1:10): 16 nM
EC50 (BK Virus; Virus Dilution 1:50): 3.5 nM
EC50 (BK Virus; Virus Dilution 1:100): 3.7 nM
AUC(0-t) [5, 17]: 2610 ng·h/mL
Cmax [5, 17]: 350 ng/mL
Tmax [5, 17]: 3 h
half-life [5, 17]: 24 h
AUC(0-inf) ([5]; human, oral, CMX001 2 mg/kg single dose, plasma, Mean, read-out: AUCinf_obs): 2650 ng·h/mL
tolerability ([5]; single and multiple doses): well tolerated
availability and distribution [6]: orally available and widely distributed
EC50 (HPV 11; A-431, A431): 17000 nM
Enhanced Activity (HPV 11; CMX001 versus cidofovir EC50): 42
